In general, inhibition refers to how much of the control response was suppressed. Usually IC50 stands for the concentration that gives 50% inhibition. A low value points to greater potency.

SMILES strings stand for the structures. Counter-ions that a name gives are not always drawn. Like-named read-outs stand apart in the source and are kept apart here. Where only a bound is given, the exact number is not on record here.

The target of this assay is T1, beta-amyloid 42 (Aβ42) (Homo sapiens, UniProt P05067).
T1 construct: Beta-amyloid 42 (Aβ42) was dissolved in dimethylsulfoxide (DMSO)
In words: Inhibitory effect on the formation of beta-amyloid fibrils in vitro (ThT fluorescence assay). In kind it is biochemical. Conditions: for inhibition at 10 µM: read-out: % Inhibition (10 μM); for IC50: In vitro ThT analysis (Aβ42: 25 μM); for % inhibition against the beta-amyloid 42 formation compared with curcumin: Tables 1 to 6, relative to curcumin. As to the method: In order to investigate the inhibitory effect on the formation of beta-amyloid fibrils, the inventive compounds were examined as follows:
Beta-amyloid 42 (Aβ42) was dissolved in dimethylsulfoxide (DMSO) to form a […] Aβ42 stock solution. In addition, ThT (thioflavin T) was dissolved in distilled water to a concentration of 1 mM and subsequently diluted with 50 mM glycin buffer (pH 8.5) to yield a 5 μM ThT stock solution.
45 μL of PBS (phosphate buffer saline, pH 7.4) was added to each of a 96 well fluorescence microplate (white, F-bottom). 5 μL of the 250 μM Aβ42 stock solution was added to each well. The final concentration of each compound obtained in Examples was in a range of 10 to 0.001 μM by adding 2 μL of a solution, which is prepared by dissolving the subject compounds obtained in Examples in DMSO, to each well. At this time, the final concentration of Aβ42 in each well was 25 μM. The plate was then incubated at room temperature for 1 hr, and 150 μL of the 5 μM ThT stock solution was added to each well.
The fluorescence intensity of each well was determined with the multi label fluorescence counter (LS-55 Luminescence spectrometer, Perkin Elmer) at an excitation wavelength of 450 nm (excitation slit width: 10 nm) and an emission wavelength of 482 nm (emission slit width: 10 nm), while adjusting counting time to 1 second. The control group was prepared by adding PBS solution, Aβ42 and DMSO, without adding the inventive compound. % Inhibition on the formation of beta-amyloid fibrils was calculated in accordance with the following equation and IC5O was calculated by using GraphPad Prism version 4.03 Program.
% Inhibition=[1−(C−D)/(A−B)]×100 Equation 1%
A (control group): fluorescence intensity in a group treated with PBS solution, Aβ42, and DMSO
B (blank): fluorescence intensity in a group treated with PBS solution and DMSO
C (experimental group): fluorescence intensity in a group treated with PBS solution, Aβ42, DMSO, and the inventive compound
D (compensation value to the experimental group): fluorescence intensity in a group treated with PBS solution, DMSO, and the inventive compound

[1] abbreviates: 10 μM compound, Aβ42 25 μM, experiment of Table 3.
[2] abbreviates: 10 μM compound, Aβ42 25 μM, experiment of Table 5.
The mark [3] stands for this setting: 10 μM compound, Aβ42 25 μM, experiment of Table 2.
[4] abbreviates: 10 μM compound, Aβ42 25 μM, experiment of Table 6.
Where [5] appears, read: 10 μM compound, Aβ42 25 μM, experiment of Table 4.
Where [6] appears, read: 10 μM compound, Aβ42 25 μM, experiment of Table 7.

T1 sequence (P05067 672-713 limits assumed): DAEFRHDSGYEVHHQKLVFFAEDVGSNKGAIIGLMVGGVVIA

For the compound `CCN(CC)c1ccc(C=Cc2cc3ccc(OC)cc3o2)cc1` [Compound 57, 6-methoxy-2-(4-diethylaminostyryl)benzofuran], the inhibition at 10 µM under setting [1] amounted to 62.8%.

`Cc1ccc2cc(C=Cc3ccc(N(C)C)cc3)oc2c1` [Compound 11, 6-methyl-2-(4-dimethylaminostyryl)benzofuran] registered an IC50 (experiment of Table 1) of 3440 nM.

The compound `CN(C)c1ccc(C=Cc2cc3ccc(F)cc3o2)cc1` [Compound 12, 6-fluoro-2-(4-dimethylaminostyryl)benzofuran] registered an IC50 (experiment of Table 1) of 2190 nM.

As to `CCN(CC)c1ccc(C=Cc2cc3cc(I)ccc3o2)cc1` [Compound 47, 5-iodo-2-(4-diethylaminostyryl)benzofuran], the “% inhibition against the beta-amyloid 42 formation compared with curcumin” value (“% inhibition” below) is listed as “superior % inhibition”. The inhibition at 10 µM under setting [2] came out at 63.3%. Further, where the note is “experiment of Table 5”, the IC50 was 1050 nM.

With `Nc1ccc(C=Cc2cc3ccc(O)cc3o2)cc1` [Compound 67, 6-hydroxy-2-(4-aminostyryl)benzofuran], the inhibition at 10 µM under setting [2] stood at 60.2%.

With `CCN(CC)c1ccc(C=Cc2cc3cc(C)ccc3o2)cc1` [Compound 41, 5-methyl-2-(4-diethylaminostyryl)benzofuran], the inhibition at 10 µM under setting [1] is below 1%.

Turning to `CNc1ccc(C=Cc2cc3ccccc3o2)cc1` [Compound 25, 2-(4-methylaminostyryl)benzofuran trifluoroacetate], the inhibition at 10 µM was determined as 59%.

In the case of `COc1ccc(C=Cc2cc3cc(C)ccc3o2)cc1OC` [Compound 43, 5-methyl-2-(3,4-dimethoxystyryl)benzofuran], the inhibition at 10 µM under setting [3] was found to be 69.4%. The compound further came in with a half-maximal inhibitory concentration (IC50) (experiment of Table 2) of 10500 nM.

As for `COc1ccc2cc(C=Cc3ccc(N)cc3)oc2c1` [Compound 20, 6-methoxy-2-(4-aminostyryl)benzofuran], the IC50 (experiment of Table 1) was found to be 5440 nM.

Regarding `CNc1ccc(C=Cc2cc3cc(OC)c(OC)cc3o2)cc1OC` [Compound 53, 5,6-dimethoxy-2-(3-methoxy-4-methylaminostyryl)benzofuran], the inhibition at 10 µM under setting [2] is 56.2%.

Consider `CCN(CC)c1ccc(C=Cc2cc3ccccc3o2)cc1` [Compound 26, 2-(4-diethylaminostyryl)benzofuran], for which the inhibition at 10 µM under setting [1] is 4.54%.

On to `COc1ccc2cc(C=Cc3ccc(OC)c(OC)c3)oc2c1` [Compound 59, 6-methoxy-2-(3,4-dimethoxystyryl)benzofuran], for which the “% inhibition” value was “superior % inhibition”. Also, the inhibition at 10 µM under setting [4] worked out at 79.9%. This compound also gave an IC50 (experiment of Table 6) of 1020 nM.

On to `CNc1ccc(C=Cc2cc3cc(I)ccc3o2)cc1OC` [Compound 48, 5-iodo-2-(3-methoxy-4-methylaminostyryl)benzofuran], for which the “% inhibition” value is given as “superior % inhibition”. Besides, the inhibition at 10 µM under setting [4] came out at 74.2%. This compound also yielded an IC50 (experiment of Table 6) of 1050 nM.

For the compound `CCN(CC)c1ccc(C=Cc2cc3ccc(O)cc3o2)cc1` [Compound 69, 6-hydroxy-2-(4-diethylaminostyryl)benzofuran], under setting [2], the inhibition at 10 µM came to 42.2%.

Under “experiment of Table 1”, `CNc1ccc(C=Cc2cc3cc(O)ccc3o2)cc1` [Compound 19, 5-hydroxy-2-(4-methylaminostyryl)benzofuran hydrochloride] gave an IC50 of 2160 nM.

In the case of `COc1ccc(C=Cc2cc3cc(I)ccc3o2)cc1OC` [Compound 50, 5-iodo-2-(3,4-dimethoxystyryl)benzofuran], under setting [5], the inhibition at 10 µM amounted to 62.4%. Where the note is “experiment of Table 4”, this compound gave an IC50 of 5790 nM.

The compound `CNc1ccc(C=Cc2cc3ccc(OC)cc3o2)cc1` [Compound 21, 6-methoxy-2-(4-methylaminostyryl)benzofuran] gave an IC50 (experiment of Table 1) of 800 nM.

As for `CN(C)c1ncc(/C=C/c2nc3ccccc3o2)s1` [Comparative Example 1, reference compound], under setting [6], the inhibition at 10 µM was 63.4%. Under “experiment of Table 7”, this compound gave an IC50 of 3400 nM.

As for `CNc1ccc(/C=C/c2cc3cc(OC)ccc3o2)cc1` [hydrochloride of Ex. 17], the “% inhibition” value was “superior % inhibition”. Moreover, the inhibition at 10 µM under setting [4] turned out to be 74.1%. For the setting “experiment of Table 6”, this compound gave an IC50 of 661 nM.

As to `COc1cc(/C=C/C(=O)CC(=O)/C=C/c2ccc(O)c(OC)c2)ccc1O` [curcumin, reference compound], the inhibition at 10 µM was 78.3%. Besides, the inhibition at 10 µM under setting [3] came out at 92.1%. Besides, the inhibition at 10 µM under setting [5] came out at 79.7%. Besides, the inhibition at 10 µM under setting [2] came out at 67.8%. For the same compound, under setting [4], the inhibition at 10 µM stood at 98.1%. Further, the inhibition at 10 µM under setting [6] was 76.4%.

On to `COc1ccc(C=Cc2cc3cc(C)ccc3o2)cc1` [Compound 42, 5-methyl-2-(4-methoxystyryl)benzofuran], for which, under setting [3], the inhibition at 10 µM turned out to be 69.7%. Also, the IC50 (experiment of Table 2) stood at 15900 nM.

Turning to `COc1ccc2oc(C=Cc3ccc(OC)c(OC)c3)cc2c1` [Compound 38, 5-methoxy-2-(3,4-dimethoxystyryl)benzofuran], under setting [3], the inhibition at 10 µM came to 81.1%. The same compound had an IC50 (experiment of Table 2) of 1560 nM.

On to `CCN(CC)c1ccc(C=Cc2cc3cc(OC)c(OC)cc3o2)cc1` [Compound 52, 5,6-dimethoxy-2-(4-diethylaminostyryl)benzofuran], for which the inhibition at 10 µM under setting [2] came out at 42.3%.

`COc1ccc2oc(C=Cc3ccc(N(C)C)cc3)cc2c1` [Compound 2, 5-Methoxy-2-(4-dimethylaminostyryl)benzofuran] showed an IC50 (experiment of Table 1) of 810 nM.

As for `COc1ccc2cc(/C=C/c3ccc(N(C)C)cc3)oc2c1` [hydrochloride of Ex. 9], the “% inhibition” value is recorded as “superior % inhibition”. Further, under setting [4], the inhibition at 10 µM came to 62.9%. Also, for the setting “experiment of Table 6”, the IC50 was determined as 1880 nM.

As for `CNc1ccc(C=Cc2cc3ccc(O)cc3o2)cc1` [Compound 68, 6-hydroxy-2-(4-methylaminostyryl)benzofuran], under setting [2], the inhibition at 10 µM amounted to 61.9%.

On to `COc1ccc(C=Cc2cc3ccc(OC)cc3o2)cc1` [Compound 58, 6-methoxy-2-(4-methoxystyryl)benzofuran], for which the inhibition at 10 µM under setting [1] was 57.2%.

With `CNc1ccc(C=Cc2cc3cc(I)ccc3o2)cc1` [Compound 46, 5-iodo-2-(4-methylaminostyryl)benzofuran], the “% inhibition” value was “superior % inhibition”. In addition, the inhibition at 10 µM under setting [4] is 61%. The compound also had an IC50 (experiment of Table 6) of 1770 nM.

Consider `COc1ccc(C=Cc2cc3cc(Cl)ccc3o2)cc1OC` [Compound 34, 5-chloro-2-(3,4-dimethoxystyryl)benzofuran], for which the “% inhibition” value was “superior % inhibition”. The inhibition at 10 µM under setting [3] turned out to be 72.5%. Where the note is “experiment of Table 2”, the IC50 came to 181 nM.

For `CCN(CC)c1ccc(C=Cc2cc3cc(Cl)ccc3o2)cc1` [Compound 31, 5-chloro-2-(4-diethylaminostyryl)benzofuran], under setting [5], the inhibition at 10 µM worked out at 37.9%. This compound displayed an IC50 (experiment of Table 4) of 963 nM.

Take `CNc1ccc(C=Cc2cc3cc(OCCOCCOCCF)ccc3o2)cc1` [Compound 45, 5-(2-(2-(2-fluoroethoxy)ethoxy)ethoxy)-2-(4-methylaminostyryl)benzofuran]: the inhibition at 10 µM under setting [2] turned out to be 53.5%.

For `CN(C)c1ccc(C=Cc2cc3ccc(Cl)cc3o2)cc1` [Compound 13, 6-chloro-2-(4-dimethylaminostyryl)benzofuran], the IC50 (experiment of Table 1) is 3210 nM.

The values above are taken from patent US20110124888A1, “STYRYLBENZOFURAN DERIVATIVES AS INHIBITORS FOR BETA-AMYLOID FIBRIL FORMATION AND PREPARATION METHOD THEREOF” (Korea Institute of Science and Technology, priority 2008, published 2011).
